Data on 1 compound can be found in PMC9312917 (2022).

Broadly, the Kd is the free concentration of one partner at which half of the binding sites on the other are occupied at equilibrium, for simple one-to-one binding. The low end stands for tighter binding, the high end for weaker binding.

Holding throughout (assay): graphene oxide fluorescence assay
Holding throughout (conditions): 100 mM NaCl, 5 mM KCl, 2 mM MgCl2, 1 mM CaCl2; 20 mM Tris-HCl pH 7.5, room temperature; aptamer 0-400 nM titrated at fixed 1 µg/mL SQX

For test [1], the system named is SBA40-1 (DNA, aptamer) GGCTGACTGCT
Test [2] relates to SBA24-1 (DNA, aptamer) GCGTGAGC
Test [3] relates to SBA28-1 (DNA, aptamer) CCCTAGGGG

With `Nc1ccc(S(=O)(=O)Nc2cnc3ccccc3n2)cc1`, the values for the dissociation constant (Kd) in test [1], in test [2] and in test [3] were 36.73 nM, 74.19 nM and 27.36 nM, respectively.
